# Test results taken from US20260083859A1, “SUSTAINED TRANSGENE EXPRESSION OF MODIFIED ERT2 PEPTIDE-SUICIDE PROTEIN FUSION POLYPEPTIDES” (Senti Biosciences, Inc., priority 2023, published 2026).
# Tests used:
# [1] = tested on: human iPSCs; experiment: Conventional PCR (agarose gel) of knock-in iPSC pools, with or without 4-OHT; type: cell-based; details: iPSC pools treated with 1 nM 4-OHT
# Method: Modified ERT2 peptide-suicide protein fusion polypeptide encoding constructs were delivered to human iPSCs via Nucleofection with a GAPDH targeting ribonucleoprotein (RNP) complex comprising of Cpf1 endonuclease and a single guide RNA (sgRNA) targeting the coding sequence of the GAPDH gene. The sgRNA comprised a sequence 5′ […] 3′ (SEQ ID NO: 60). Briefly, iPSCs were cultured in Essential 8 (E8) medium and maintained at 37° C. at 5% CO2 level between passages. Passages were done at 75 to 80% confluency. On the day of Nucleofection, iPSCs were thawed and immediately Nucleofected in Lonza P3 Primary Cell Nucleofection buffer. 7.5 μg of each plasmid construct (BRC00058-61) were Nucleofected into iPSCs using GAPDH Cpf1 RNP with LONZA 4D Nucleofector. The Nucleofected cells were then plated at 50,000 cells/cm^2 per well of a 6-well plate and grown in E8 medium (plus Rock inhibitor Y-27632 from Tocris) for 72 to 96 hours. Knock-in pools were screened for integration 7d post-Nucleofection using ddPCR, as well as conventional PCR.
# [2] = tested on: iPSCs; experiment: Apoptosis induction in transfected iPSCs monitored by microscopy and Incucyte tracking; type: cell-based, human; details: unedited control cells, 1 nM 4-OHT, up to two days
# [3] = tested on: iPSC clones; experiment: Apoptotic efficacy in individual construct clones treated with 4-OHT, Endoxifen or combinations; type: cell-based, human; details: clone Construct 1 c.165
# Method: Next, individual clones that were determined to be suitable for further assessments were evaluated for 24 hours in the presence of 4-OHT at two different concentrations.
# Individual Construct 1-4 clones were also assessed for their responses to another tamoxifen metabolite, Endoxifen. Clones were evaluated for 24 hours in the presence of Endoxifen at three different concentrations.
# Tamoxifen is a prodrug that is broken down into its active metabolites in vivo. To model predicted drug concentrations in a patient, the clone Construct 1 c.165 was treated with various combinations of 4-OHT and Endoxifen, wherein 1.25 nM Endoxifen was combined with a concentration of 4-OHT ranging between 0.125 nM to 1 nM (FIG. 12A). […] In the next evaluation, 0.125 nM 4-OHT was combined with either 0.625 or 1.25 nM Endoxifen (FIG. 12B).
# [4] = tested on: PSC-derived microglial precursor cells or myeloid progenitor cells; experiment: Apoptosis in PSC-derived microglial precursor cells or myeloid progenitor cells (Example 8); type: cell-based; details: cells from PSCs engineered with Table 3 constructs; 1, 5, 50 or 100 nM 4-OHT, or 5, 10, 50 or 100 nM Endoxifen
# Method: To validate conservation of kill switch function after PSCs are differentiated to precursor cells or myeloid progenitor cells, PSCs engineered to incorporate the modified ERT2 peptide-suicide protein fusion polypeptide constructs outlined in Table 3 were differentiated into microglial precursor cells or myeloid progenitor cells. Thereafter PSC-derived microglial precursor cells or myeloid progenitor cells are treated with Endoxifen, 4-OHT or media alone and tested for incorporation of the modified ERT2 peptide-suicide protein fusion polypeptide in the STEL site.
# To test function of the modified ERT2 peptide-suicide protein fusion polypeptide constructs in PSC-derived microglial precursor cells or myeloid progenitor cells, cells are cultured, then treated with either lnM, 5 nM, 50 nM, or 100 nM 4-OHT, or 5 nM, 10 nM, 50 nM, or 100 nM Endoxifen, before assessment of apoptosis.
# [5] = tested on: PSC-derived dopaminergic neurons; experiment: Apoptosis in PSC-derived dopaminergic neurons (Example 9); type: cell-based; details: neurons from PSCs engineered with Table 3 constructs; 1, 5, 50 or 100 nM 4-OHT, or 5, 10, 50 or 100 nM Endoxifen
# Method: To validate conservation of kill switch function after PSCs are differentiated to dopaminergic neurons, PSCs engineered to incorporate the modified ERT2 peptide-suicide protein fusion constructs outlined in Table 3 are differentiated into dopaminergic neurons. Thereafter PSC-derived dopaminergic neurons are treated with Endoxifen, 4-OHT or media alone and tested for incorporation of the modified ERT2 peptide-suicide protein fusion polypeptide construct in the STEL site.
# To test function of the modified ERT2 peptide-suicide protein fusion polypeptides in PSC-derived dopaminergic neurons, dopaminergic neurons are cultured, then treated with either lnM, 5 nM, 50 nM, or 100 nM 4-OHT; or 5 nM, 10 nM, 50 nM, or 100 nM Endoxifen, before assessment of apoptosis.
# [6] = tested on: PSC-derived myeloid progenitor cells; experiment: TamCasp9 Safety Switch activation in PSC-derived myeloid progenitor cells, AOPI staining, Incucyte SX5; type: cell-based, human; details: unedited differentiated myeloid progenitors, combination 4-OHT and Endoxifen treatment
# Method: A hPSC line engineered with TamCasp9 Construct 1 and an unedited parental control hPSC line were differentiated into myeloid progenitor cells through the addition of various growth factors and small molecules. Differentiated cells were plated at 1×10^5 cells/cm^2 in an ultra-low attachment cell culture plate for further myeloid cell maturation. After 7 days in maturation medium, cells were collected and frozen down.
# For testing of TamCasp9 Safety Switch activation, myeloid cells were plated at 1.5×10^5 cells/cm^2 in a 96-well tissue culture plate with a 1:750 dilution of ViaStain AOPI Staining Solution (Nexcelom) in X-VIVO 15 Medium with 10 ng/mL GM-CSF. The kill switch was induced with 0, 1, 10 or 100 uM of Endoxifen over 3 days and images were collected every 6 hours on the Incucyte SX5 (Sartorius).
# To better model predicted drug concentrations in a patient by testing activation of the kill switch against a range of tamoxifen metabolites, the PSC clone Construct 1 c.165, engineered to incorporate an exemplary modified ERT2 peptide-suicide protein fusion polypeptide construct (Table 3), was differentiated to myeloid progenitor cells as depicted in FIG. 13A. Differentiated cells were plated at 1×10^5 cells/cm^2 in an ultra-low attachment cell culture plate for further myeloid cell maturation. After 7 days in maturation medium, cells were collected and frozen down. For testing of TamCasp9 Safety Switch activation, myeloid cells were plated at 1.0×10^5 cells/cm^2 in a 96-well tissue culture plate with a 1:750 dilution of ViaStain AOPI Staining Solution (Nexcelom) in X-VIVO 15 Medium with 10 ng/mL GM-CSF. The kill switch was induced with varying concentrations of combination 4-OHT and Endoxifen treatment over 4 days and images were collected every 4 hours on the Incucyte SX5, with 12 hour timepoints plotted on a graph (Sartorius) (FIG. 14). Either 2.5 nM or 5 nM of Endoxifen was tested in combination with either 0.5 nM, 1 nM or 10 nM of 4-OHT. 100 nM Endoxifen was added as positive killing control as per FIG. 13E.
substance,measurement,setting,value
4-hydroxytamoxifen [Construct 4-OHT],amount of cells carrying integration of kill-switch fusion sequences (PCR band intensity),[1],reduced the amount of cells that carried integration of the kill-switch fusion sequences at the GAPDH locus
same,cell growth and density,[2],no detectable effect on cell health and growth
same,lowest effective concentration in 4-OHT-Endoxifen combination,[3],0.125 nM
same,apoptosis,[4],resulted in apoptosis
same,apoptosis,[5],resulted in apoptosis
same,apoptosis in unedited cells,[6],did not induce apoptosis
